Experimental findings from patent publication US20160052926A1, “NOVEL PYRIMIDINE AND PYRIDINE COMPOUNDS AND USAGE THEREOF” (HUTCHISON MEDIPHARMA LIMITED, priority 2013, published 2016) are described below.

One assay deals with Recombinant human FGFR1 (Homo sapiens, UniProt P11362). Put plainly: Transcreener Kinase Assay of FGFR1. It counts as biochemical. The note with it: read-out: FGFR1 (FP) IC50.
A further assay relates to SNU-16. Put plainly: Cellular Proliferation Assay (Cell Counting Kit-8), SNU-16. The format is cell-based. The note with it: Homo sapiens, SNU-16 cells, 72 hours. The procedure, abridged: (§1)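 Seeding was 30,000 (KG-1), 5,000 (SNU-16) or 1,000 (RT-112) cells per well, with compound added 24 h later. Dilutions were prepared as an 8-point series of 10 to 0.004 μM in 5% DMSO, before addition to wells.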
On the technique in general: Tetrazolium dyes change colour on reduction, which living cells bring about.

The next assay deals with RT-112. Description: Cellular Proliferation Assay (Cell Counting Kit-8), RT-112. The note with it: Homo sapiens, RT-112 cells, 72 hours. It counts as cell-based. In outline: as §1
A further assay addresses FGFR3 kinase (Homo sapiens, UniProt P22607). Put plainly: Z-Lyte Kinase Assay of FGFR3. The format is biochemical. The procedure, abridged: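 Kinase at 0.7 μg/ml with 4 μM Z-LYTE Tyr 4 peptide and ATP diluted to 300 uM (working solution, 1.33× buffer); compounds 1–0.00046 μM, 2% DMSO final. Kinase reaction and development each 1 h at RT (25-30[…]); coumarin (445 nm) and fluorescein (520 nm) emission read, inhibition from % phosphorylation.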

The test system of the next assay is KG-1. Description: Cellular Proliferation Assay (Cell Counting Kit-8), KG-1. Particulars: Homo sapiens, KG1 cells, 72 hours. The format is cell-based. The procedure, abridged:
as §1

The next assay deals with Recombinant human FGFR2 (Homo sapiens, UniProt P21802). Description: Transcreener Kinase Assay of FGFR2. It counts as biochemical. Particulars: read-out: FGFR2 (FP) IC50.

pIC50: −log10 of the molar value.

Chain of FGFR3 kinase (P22607 23-806): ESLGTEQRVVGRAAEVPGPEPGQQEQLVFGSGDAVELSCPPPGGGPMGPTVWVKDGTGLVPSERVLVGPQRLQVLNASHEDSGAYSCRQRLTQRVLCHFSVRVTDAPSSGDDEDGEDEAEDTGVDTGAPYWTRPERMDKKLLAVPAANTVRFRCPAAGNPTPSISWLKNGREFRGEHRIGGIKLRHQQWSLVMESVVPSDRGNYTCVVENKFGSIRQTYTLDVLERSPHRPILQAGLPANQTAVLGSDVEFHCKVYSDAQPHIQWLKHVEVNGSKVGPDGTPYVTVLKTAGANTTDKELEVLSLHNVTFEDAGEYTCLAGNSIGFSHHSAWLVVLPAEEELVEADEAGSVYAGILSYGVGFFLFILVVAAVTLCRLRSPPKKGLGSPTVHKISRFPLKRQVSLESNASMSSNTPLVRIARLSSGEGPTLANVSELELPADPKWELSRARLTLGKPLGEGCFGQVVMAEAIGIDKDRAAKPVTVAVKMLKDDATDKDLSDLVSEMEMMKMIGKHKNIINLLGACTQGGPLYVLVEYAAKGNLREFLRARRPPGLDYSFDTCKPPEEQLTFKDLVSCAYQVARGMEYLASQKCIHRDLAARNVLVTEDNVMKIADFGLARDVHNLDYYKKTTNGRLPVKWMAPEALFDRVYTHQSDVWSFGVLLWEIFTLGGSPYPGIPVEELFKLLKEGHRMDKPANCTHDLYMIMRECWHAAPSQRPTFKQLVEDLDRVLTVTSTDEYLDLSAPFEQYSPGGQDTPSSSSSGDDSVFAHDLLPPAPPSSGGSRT
Chain of Recombinant human FGFR2 (P21802 22-821): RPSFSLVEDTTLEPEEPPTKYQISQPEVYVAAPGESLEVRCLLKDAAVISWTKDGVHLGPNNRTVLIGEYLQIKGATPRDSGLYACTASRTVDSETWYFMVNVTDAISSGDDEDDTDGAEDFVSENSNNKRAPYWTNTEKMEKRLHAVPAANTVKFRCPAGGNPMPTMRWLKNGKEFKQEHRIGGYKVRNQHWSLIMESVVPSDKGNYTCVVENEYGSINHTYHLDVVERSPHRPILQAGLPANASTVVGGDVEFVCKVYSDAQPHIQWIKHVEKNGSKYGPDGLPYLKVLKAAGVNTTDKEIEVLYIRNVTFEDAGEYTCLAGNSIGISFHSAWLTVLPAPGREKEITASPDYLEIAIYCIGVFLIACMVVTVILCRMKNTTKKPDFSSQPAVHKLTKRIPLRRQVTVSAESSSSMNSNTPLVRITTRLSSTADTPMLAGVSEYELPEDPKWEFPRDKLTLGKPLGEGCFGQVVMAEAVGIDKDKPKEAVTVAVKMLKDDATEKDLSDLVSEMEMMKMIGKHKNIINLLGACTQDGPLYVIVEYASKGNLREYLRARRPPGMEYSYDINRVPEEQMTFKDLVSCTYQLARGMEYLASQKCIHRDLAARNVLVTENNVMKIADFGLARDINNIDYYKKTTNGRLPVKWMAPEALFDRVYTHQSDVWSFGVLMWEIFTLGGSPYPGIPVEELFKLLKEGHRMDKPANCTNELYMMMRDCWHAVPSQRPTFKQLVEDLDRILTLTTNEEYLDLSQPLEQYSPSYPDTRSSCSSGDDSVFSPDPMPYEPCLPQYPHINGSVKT
Chain of Recombinant human FGFR1 (P11362 22-822): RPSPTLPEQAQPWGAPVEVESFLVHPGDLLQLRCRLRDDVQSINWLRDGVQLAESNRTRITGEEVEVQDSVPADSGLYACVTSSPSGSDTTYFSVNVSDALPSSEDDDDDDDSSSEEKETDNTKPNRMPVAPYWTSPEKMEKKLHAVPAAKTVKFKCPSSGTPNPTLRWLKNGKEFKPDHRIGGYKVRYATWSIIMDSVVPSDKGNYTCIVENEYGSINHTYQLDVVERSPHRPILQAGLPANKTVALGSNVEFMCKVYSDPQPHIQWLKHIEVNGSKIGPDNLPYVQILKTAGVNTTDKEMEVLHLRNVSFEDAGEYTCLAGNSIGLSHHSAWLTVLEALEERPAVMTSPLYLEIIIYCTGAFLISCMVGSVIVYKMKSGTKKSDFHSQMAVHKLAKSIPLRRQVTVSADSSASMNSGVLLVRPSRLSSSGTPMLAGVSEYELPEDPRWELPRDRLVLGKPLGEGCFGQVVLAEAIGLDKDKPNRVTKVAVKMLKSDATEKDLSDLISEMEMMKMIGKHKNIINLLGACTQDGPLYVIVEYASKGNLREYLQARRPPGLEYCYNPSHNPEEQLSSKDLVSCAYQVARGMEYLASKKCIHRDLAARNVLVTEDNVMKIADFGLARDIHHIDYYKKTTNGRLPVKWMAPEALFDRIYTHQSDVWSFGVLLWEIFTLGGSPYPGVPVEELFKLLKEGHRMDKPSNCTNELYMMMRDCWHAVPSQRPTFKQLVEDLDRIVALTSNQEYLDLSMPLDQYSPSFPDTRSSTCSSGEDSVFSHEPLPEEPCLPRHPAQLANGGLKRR

The pIC50 is the IC50 on a negative log10 scale, so that one unit is a factor of ten. Consider `CNC(=O)c1cc(OC)c(Cl)c(CCc2cnc(Nc3ccc(N4C[C@@H](C)N[C@@H](C)C4)cc3)nc2)c1F` [Compound 91], for which the pIC50 on Recombinant human FGFR1 was 7.70; with SNU-16, 7.72; with RT-112, 7.19; at FGFR3 kinase, 7.77; with KG-1 it was 7.49; on Recombinant human FGFR2 it was 7.80.

In the case of `CNC(=O)c1cc(CCc2cnc(Nc3cnn(CCCN(C)C)c3)nc2)c(F)c(OC)c1` [Compound 133], the pIC50 on Recombinant human FGFR1 was 7.70; in the assay on SNU-16 it was 7.29; with RT-112, 6.15; at FGFR3 kinase, 7.80; with KG-1 it was 6.46; on Recombinant human FGFR2, 8.10.

`CONC(=O)c1cc(COc2cnc(Nc3cnn(C)c3)nc2)c(Cl)c(OC)c1` [Compound 185]: the pIC50 is 8.30 at Recombinant human FGFR1; 8.70 in the assay with SNU-16; 8.30 in the assay with RT-112; 8.40 against FGFR3 kinase; 8.70 in the assay on KG-1; 8.52 at Recombinant human FGFR2.

With `CNC(=O)c1cc(CCc2cnc(Nc3ccc(-n4cccn4)cc3)nc2)c(F)c(OC)c1` [Compound 35], the pIC50 on Recombinant human FGFR1 was 7.52; in the assay on SNU-16, 6.80; in the assay on RT-112 it was 6.34; on FGFR3 kinase, 7.08; in the assay on KG-1 it was 6.72; at Recombinant human FGFR2, 8.05.

As to `CONC(=O)c1cc(CCc2cnc(Nc3cn[nH]c3)nc2)cc(OC)c1` [Compound 101], the pIC50 on Recombinant human FGFR1 is 8.10; in the assay with SNU-16, 7.38; with RT-112 it was 6.59; at FGFR3 kinase it was 7.82; in the assay with KG-1, 7.66; at Recombinant human FGFR2, 8.40.

For `CNC(=O)c1cc(CCc2cnc(Nc3ccc(C(=O)N4CCN(C)CC4)cc3)nc2)c(Cl)c(OC)c1` [Compound 90], the pIC50 at Recombinant human FGFR1 is 7.96; in the assay on SNU-16 it was 8.05; in the assay with RT-112 it was 7.59; on FGFR3 kinase it was 8.15; in the assay with KG-1, 7.51; on Recombinant human FGFR2, 8.30.

`CNC(=O)c1cc(COc2cnc(Nc3ccc(O)cc3)nc2)c(F)c(OC)c1` [Compound 211]: the pIC50 on Recombinant human FGFR1 was 7.74; in the assay on SNU-16, 7.28; in the assay on RT-112, 6.79; on FGFR3 kinase, 7.68; with KG-1, 7.08; on Recombinant human FGFR2, 8.05.

Regarding `CNC(=O)c1cc(COc2cnc(Nc3ccc(N4C[C@@H](C)N[C@@H](C)C4)c(F)c3)nc2)c(F)c(OC)c1` [Compound 195], the pIC50 on Recombinant human FGFR1 was 7.92; in the assay with SNU-16, 7.80; in the assay with RT-112, 7.60; on FGFR3 kinase, 7.92; in the assay on KG-1, 7.60; on Recombinant human FGFR2 it was 8.22.

Consider `CNC(=O)c1cc(CCc2cnc(Nc3ccc(C)nc3)nc2)c(F)c(OC)c1` [Compound 26], for which the pIC50 is 7.70 at Recombinant human FGFR1; 7.54 in the assay on SNU-16; 7.03 in the assay on RT-112; 7.57 against FGFR3 kinase; 7.32 in the assay on KG-1; 7.92 at Recombinant human FGFR2.

Consider `CNC(=O)c1cc(CCc2cnc(Nc3ccc(N4CCCCC4=O)cc3)nc2)c(F)c(OC)c1` [Compound 145, 4-fluoro-3-methoxy-N-methyl-5-(2-(2-(4-(2-oxopiperidin-1-yl)phenylamino)pyrimidin-5-yl)ethyl)benzamide], for which the pIC50 was 7.43 at Recombinant human FGFR1; 7.28 in the assay on SNU-16; 6.59 in the assay on RT-112; 7.49 against FGFR3 kinase; 6.81 in the assay with KG-1; 7.89 at Recombinant human FGFR2.

As to `CNC(=O)c1cc(CCc2cnc(Nc3cnn(C4COC4)c3)nc2)c(F)c(OC)c1` [Compound 117], the pIC50 is 7.55 on Recombinant human FGFR1; 7.59 in the assay on SNU-16; 6.73 in the assay with RT-112; 7.89 on FGFR3 kinase; 7.51 in the assay with KG-1; 8.30 on Recombinant human FGFR2.

`CCN1CCC[C@H](n2cc(Nc3ncc(CCc4cc(C(=O)NC)cc(OC)c4F)cn3)cn2)C1` [Compound 175]: the pIC50 is 8.05 on Recombinant human FGFR1; 7.85 with SNU-16; 7.24 with RT-112; 8.10 against FGFR3 kinase; 7.64 with KG-1; 8.22 at Recombinant human FGFR2.

For `CNC(=O)c1cc(CCc2cnc(Nc3cnn([C@H]4CCCNC4)c3)nc2)c(F)c(OC)c1` [Compound 163], the pIC50 was 8.15 on Recombinant human FGFR1; 7.22 in the assay on SNU-16; 6.23 with RT-112; 8.10 against FGFR3 kinase; 6.70 with KG-1; 8.22 on Recombinant human FGFR2.

With `CNC(=O)c1cc(CCc2cnc(Nc3ccc(N4C[C@@H](C)N[C@@H](C)C4)c(C)c3)nc2)c(Cl)c(OC)c1` [Compound 208], the pIC50 at Recombinant human FGFR1 is 8.00; in the assay with SNU-16, 7.77; in the assay on RT-112, 7.68; against FGFR3 kinase, 8.05; with KG-1, 7.22; on Recombinant human FGFR2, 8.30.

In the case of `CNC(=O)c1cc(CCc2cnc(Nc3cnn(CC4(C)COC4)c3)nc2)c(F)c(OC)c1` [Compound 131], the pIC50 at Recombinant human FGFR1 is 7.72; in the assay on SNU-16 it was 7.89; in the assay with RT-112, 6.88; against FGFR3 kinase, 7.96; in the assay with KG-1, 7.43; at Recombinant human FGFR2, 8.10.

On to `CNC(=O)c1cc(CCc2cnc(Nc3cccc(N4CCOCC4)c3)nc2)c(F)c(OC)c1` [Compound 38], for which the pIC50 at Recombinant human FGFR1 was 8.10; with SNU-16, 7.52; in the assay with RT-112, 7.07; at FGFR3 kinase, 7.70; in the assay with KG-1 it was 7.55; on Recombinant human FGFR2 it was 8.52.

In the case of `CNC(=O)c1cc(CCc2cnc(Nc3cnn(C)c3)nc2)c(Cl)c(OC)c1` [Compound 146], the pIC50 at Recombinant human FGFR1 was 7.92; with SNU-16, 7.72; in the assay on RT-112 it was 6.85; at FGFR3 kinase, 7.85; in the assay with KG-1, 8.05; on Recombinant human FGFR2, 8.00.

With `CNC(=O)c1cc(OC)c(Cl)c(/C=C/c2cnc(Nc3ccc(N4C[C@@H](C)N[C@@H](C)C4)cc3)nc2)c1F` [Compound 8], the negative-log IC50 (pIC50) at Recombinant human FGFR1 is 8.22; in the assay on SNU-16 it was 7.85; in the assay with RT-112, 7.72; against FGFR3 kinase it was 7.85; in the assay on KG-1, 7.96; at Recombinant human FGFR2, 8.30.

Consider `CNC(=O)c1cc(CCc2cnc(Nc3ccc4nnc(C)n4c3)nc2)c(F)c(OC)c1` [Compound 69], for which the pIC50 is 7.38 at Recombinant human FGFR1; 7.07 in the assay on SNU-16; 6.47 in the assay with RT-112; 7.38 at FGFR3 kinase; 6.57 in the assay on KG-1; 7.70 on Recombinant human FGFR2.

With `CNC(=O)c1cc(CCc2cnc(Nc3cnn(CC4CCN(C)CC4)c3)nc2)c(Cl)c(OC)c1` [Compound 154], the pIC50 on Recombinant human FGFR1 is 7.92; with SNU-16 it was 7.80; in the assay with RT-112, 7.68; at FGFR3 kinase, 8.05; in the assay on KG-1, 6.43; at Recombinant human FGFR2, 8.30.

For `CNC(=O)c1cc(CCc2cnc(Nc3ccc(N4C[C@@H](C)N[C@@H](C)C4)cc3)nc2)c(Cl)c(OC)c1` [Compound 79, 4-chloro-3-(2-(2-((4-((3S,5R)-3,5-dimethylpiperazin-1-yl)phenyl)amino)pyrimidin-5-yl)ethyl)-5-methoxy-N-methylbenzamide], the pIC50 at Recombinant human FGFR1 is 8.22; in the assay with SNU-16 it was 7.85; in the assay with RT-112, 7.47; on FGFR3 kinase it was 8.22; with KG-1, 7.89; at Recombinant human FGFR2 it was 8.22.
